Assay results: patent publication US6509050B1, “Use of antimicrobial polyphosphates in food processing” (Astaris LLC, priority 1999, dated 2003)
Where “and” joins values, the source holds several entries; their conditions need not be identical. Equal entries are not always repeated.

Tests used:
Type in all cases: cell-based
[1] = tested on: psychrotrophic organisms; test: Growth of psychrotrophic microorganisms in sectioned and formed ham (Example 7); conditions: after 8 weeks storage at 1.11° C., no phosphate: 7.79
Procedure: (§1) Five 16 Kg batches of restructured ham were prepared. Fresh whole pork hams were skinned, boned, sectioned into muscles, and each muscle trimmed to remove all trimmable connective tissue and subcutaneous and intramuscular fat. […] The pumped muscles were macerated manually to facilitate brine absorption; tumbled; and stuffed into fibrous casings in 908.0 g chubs. The hams were weighed and then cooked to 71.1° C. internal temperature. Cooked hams were chilled for 24 hr at 0° C., vacuum packaged, and stored at 1.11° C. for 8 weeks. Sample homogenate was prepared by blending 11 g of ham with 99 mL of sterile 0.1% peptone diluent and agitating for 1 min in a stomacher. Serial dilutions were prepared by transferring 1.0 mL aliquots of the sample diluent to 9 mL of sterile 0.1% peptone. […] Duplicate samples were analyzed for each treatment.

[2] = tested on: aerobic plate count; test: Aerobic plate count in sectioned and formed ham (Example 7); conditions: after 8 weeks storage at 1.11° C., no phosphate: 6.03
Procedure: as §1

[3] = tested on: lactic acid organisms; test: Growth of lactic acid organisms in sectioned and formed ham (Example 7); conditions: after 8 weeks storage at 1.11° C., no phosphate: 7.42
Procedure: as §1

[4] = tested on: psychrotrophic organisms; test: Growth of psychrotrophic microorganisms in sectioned and formed ham (Example 6); conditions: 0.4% by weight phosphate in cooked ham; after 8 weeks storage at 0° C.; no phosphate: 3.97; listed as Sodium tripolyphosphate (pH about 9.8)
Procedure: Seven batches 40-pound (about 18.2 Kg) of cooked sectioned and formed boneless ham were manufactured to meet the following specifications: moisture, 71.2-73.7%; protein, 18.1-19.8%; fat, 3.66-6.31%; salt, 2.0%; and phosphate, 0.4%. The hams were manufactured to conform to the standards of identity for a cooked ham with a minimum of 18.5% protein fat free (PFF). The phosphate salts (0.4% by weight) indicated in Table 6 were added to six of the hams. […] After injection, the hams were vacuum-tumbled for 45 min, stuffed into 6.5-in (about 16.5 cm) diameter fibrous casings, and then cooked to an internal temperature of 71.1° C. Cooked hams were chilled for 8 hr at 0° C., vacuum packaged, and stored at 0° C. for 8 weeks. Sample homogenate was prepared by blending 11 g of ham with 99 mL of sterile 0.1% peptone diluent and agitating for 1 min in a stomacher. Serial dilutions were prepared by transferring 1.0 mL aliquots of the sample diluent to 9 mL of sterile 0.1% peptone. The appropriate dilutions were plated on plate count agar. The plates were incubated at 7° C. for 10 days.

SMILES	log (colony forming units)/g ([1]; 1.0% phosphate in ham)	log (colony forming units)/g ([2]; 1.0% phosphate in ham)	log (colony forming units)/g ([3]; 1.0% phosphate in ham)	log (colony forming units)/g [4]	log (colony forming units)/g ([1]; 0.4% phosphate in ham)	log (colony forming units)/g ([2]; 0.4% phosphate in ham)	log (colony forming units)/g ([3]; 0.4% phosphate in ham)
O=P([O-])(O)OP(=O)([O-])O.[Na+].[Na+] [Sodium acid pyrophosphate]	5.28 log (colony forming units)/g	4.49 log (colony forming units)/g	5.38 log (colony forming units)/g				
O=P1([O-])OP(=O)([O-])OP(=O)([O-])OP(=O)([O-])OP(=O)([O-])OP(=O)([O-])O1.[Na+].[Na+].[Na+].[Na+].[Na+].[Na+] [Sodium hexametaphosphate]	4.62 log (colony forming units)/g	4.55 log (colony forming units)/g	6.24 log (colony forming units)/g				
O=P(O)(O)OP(=O)(O)OP(=O)(O)O [Sodium tripolyphosphate]	5.91 log (colony forming units)/g	5.67 log (colony forming units)/g	6.70 log (colony forming units)/g	1.58 log (colony forming units)/g and 1.84 log (colony forming units)/g	7.8 log (colony forming units)/g	6.69 log (colony forming units)/g	6.62 log (colony forming units)/g
